Test results reported in BindingDB's records for doi:10.1016/j.bioorg.2017.04.005 (Shenyang Pharmaceutical University, 2017).
Where a SMILES comes first, the peptide text is derived from it. [ ]: non-standard residue; d: D form. pY = N[C@@H](Cc1ccc(OP(=O)(O)O)cc1)C(=O)O

Target: T1, Histone-lysine N-methyltransferase EHMT2 (Homo sapiens, UniProt Q96KQ7)
T1 sequence (Q96KQ7 whole entry): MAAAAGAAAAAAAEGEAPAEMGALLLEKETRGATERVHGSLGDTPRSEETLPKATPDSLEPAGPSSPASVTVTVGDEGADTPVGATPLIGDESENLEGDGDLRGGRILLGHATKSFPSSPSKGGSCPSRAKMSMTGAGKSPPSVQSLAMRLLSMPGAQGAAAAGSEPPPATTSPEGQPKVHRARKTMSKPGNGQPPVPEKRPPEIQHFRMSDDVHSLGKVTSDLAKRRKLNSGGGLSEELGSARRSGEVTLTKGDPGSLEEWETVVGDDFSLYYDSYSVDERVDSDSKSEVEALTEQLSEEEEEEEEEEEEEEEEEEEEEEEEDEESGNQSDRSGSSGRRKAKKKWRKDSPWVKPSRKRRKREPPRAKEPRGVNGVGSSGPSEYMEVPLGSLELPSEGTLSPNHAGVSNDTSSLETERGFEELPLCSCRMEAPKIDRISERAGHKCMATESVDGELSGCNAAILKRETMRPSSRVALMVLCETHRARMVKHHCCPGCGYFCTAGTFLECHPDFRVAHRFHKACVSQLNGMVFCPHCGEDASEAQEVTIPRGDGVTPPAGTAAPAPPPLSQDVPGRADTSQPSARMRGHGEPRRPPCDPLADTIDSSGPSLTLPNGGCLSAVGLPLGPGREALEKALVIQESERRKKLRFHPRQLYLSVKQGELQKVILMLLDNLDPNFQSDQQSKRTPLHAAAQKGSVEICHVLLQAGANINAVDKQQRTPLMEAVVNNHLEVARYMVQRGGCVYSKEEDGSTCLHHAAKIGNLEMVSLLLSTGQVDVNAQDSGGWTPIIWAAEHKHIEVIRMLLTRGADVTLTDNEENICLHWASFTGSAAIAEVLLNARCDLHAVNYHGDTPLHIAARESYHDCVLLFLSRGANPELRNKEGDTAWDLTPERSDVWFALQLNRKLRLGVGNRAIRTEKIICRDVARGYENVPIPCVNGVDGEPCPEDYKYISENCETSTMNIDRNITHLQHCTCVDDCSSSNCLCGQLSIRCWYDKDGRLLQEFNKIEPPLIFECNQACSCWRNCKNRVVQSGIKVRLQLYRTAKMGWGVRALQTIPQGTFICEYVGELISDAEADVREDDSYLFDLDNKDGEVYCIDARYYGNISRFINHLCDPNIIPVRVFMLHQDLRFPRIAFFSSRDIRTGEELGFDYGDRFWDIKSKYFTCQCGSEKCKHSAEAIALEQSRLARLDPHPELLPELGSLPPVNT
Experiment: Enzymatic Assay
Conditions: pH 8.5; 25 °C
Description: Biochemical activity of G9a was measured as described [Kubicek et al., Mol. Cell, 25:473-481]. Assays were performed in white, opaque 384-well plates coated with Neutravidin (Pierce Biotechnology). Brd 4770 was used as a positive control. Test compounds were diluted to 12 μg/ml in Baffer A (50 mM Tris-HCl pH 8.5 containing 4% DMSO) and 10 μl was dispensed into the wells. Blank and control wells received only compound buffer. GST-G9a at 10 μg/ml and SAM at 40 μM were diluted in Buffer B (50 mM Tris HCl pH 8.5/10 mM DTT) and added in a volume of 20 μL. Blank wells received Tris/DTT buffer only. The reactions were initiated by the addition of 800 nM H3 (1-20)-cysbiotin substrate in Buffer C (50 mM Tris pH 8.5) in a volume of 10 μL, and incubated at room temperature for 60 min. The plates were washed 3 times with 100 μL of Wash Buffer (50 mM Tris pH 7.4, 150 mM NaCl, 0.05% Tween 20, 0.2% BSA). Next, 50 μl of Fluoroimmunoassay (FI) Buffer (50 mM Tris HCl pH 7.8, 150 mM NaCl, 0.05% Tween 40, 25 μM DTPA, 0.2% BSA, 0.05% BGG) containing 5 ng α-2X-di-meth H3-K9 and 5 ng goat anti-rabbit Eu chelate (Perkin Elmer Life Sciences) was added to all wells of the plate, and the plate was incubated for an additional hour at room temperature. The plates were washed 3 times with 100 μL of Wash Buffer, and 50 μL of Enhancement Solution (Perkin Elmer Life Sciences) was added to each well. Time resolved fluorescence was measured after 45 min on a Viewlux Microplate Imager (Perkin Elmer Life Sciences) imaging for 15 s with a 354 μs window, 400 μs delay, excitation at 360 nm, and emission at 618 nm.

Row | IC50 [µM] | Compound
1 | 1.75 | COc1ccccc1C(=O)Nc1ccc2c(c1)nc(-c1ccccc1)n2CCCc1ccccc1 [2-Methoxy-N-(2-phenyl-1-(3-phenylpropyl)-1H-benzo[d]imidazol-5-yl)benzamide (23)]
2 | 2.63 | COc1ccccc1S(=O)(=O)Nc1ccc2c(c1)nc(-c1ccccc1)n2CCCc1ccccc1 [2-Methoxy-N-(2-phenyl-1-(3-phenylpropyl)-1H-benzo[d]imidazol-5-yl)benzenesulfonamide (14)]
3 | 1.32 | O=C(Nc1ccc2c(c1)nc(-c1ccccc1)n2CCCc1ccccc1)c1cccc(Br)c1 [3-Bromo-N-(2-phenyl-1-(3-phenylpropyl)-1H-benzo[d]imidazol-5-yl)benzamide (22)]
4 | 16.3 | CC(C)(C)c1ccc(S(=O)(=O)Nc2ccc3c(c2)nc(-c2ccccc2)n3CCCc2ccccc2)cc1 [4-(tert-Butyl)-N-(2-phenyl-1-(3-phenylpropyl)-1H-benzo[d]imidazol-5-yl)benzenesulfonamide (20)]
5 | 16.1 | O=S(=O)(Nc1ccc2c(c1)nc(-c1ccccc1)n2CCCc1ccccc1)c1ccc(F)cc1 [4-Fluoro-N-(2-phenyl-1-(3-phenylpropyl)-1H-benzo[d]imidazol-5-yl)benzenesulfonamide (17)]
6 | 6.1 | COC(=O)c1ccc2c(c1)nc(NC(=O)c1ccccc1)n2CCCc1ccccc1 [Brd4470]
7 | 15.3 | CC(C)C[C@H](NC(=O)[C@H](CC(N)=O)NC(=O)[C@@H](N)CC(=O)O)C(=O)N[C@@H](Cc1ccc(O)cc1)C(=O)N[C@@H](Cc1ccc(OP(=O)(O)O)cc1)C(=O)N[C@@H](Cc1c[nH]c2ccccc12)C(=O)N[C@@H](CC(=O)O)C(=O)N[C@@H](CCC(N)=O)C(=O)N[C@@H](CC(=O)O)C(=O)N1CCC[C@H]1C(=O)N1CCC[C@H]1C(=O)O [ErbB2-pep] (H-DNLY[pY]WDQDPP-OH)
8 | 19 | CC(C)[C@H](NC(=O)[C@@H](N)CCC(=O)O)C(=O)N[C@@H](CO)C(=O)N[C@@H](Cc1ccccc1)C(=O)N[C@@H](Cc1ccc(OP(=O)(O)O)cc1)C(=O)N[C@@H](Cc1ccc(O)cc1)C(=O)N[C@@H](CO)C(=O)N[C@@H](CCC(=O)O)C(=O)N[C@@H](CCC(=O)O)C(=O)N[C@@H](CC(N)=O)C(=O)N[C@@H](CCCCN)C(=O)O [IGF1R-pep] (H-EVSF[pY]YSEENK-OH)
9 | 26.2 | CC(C)[C@H](NC(=O)[C@H](CO)NC(=O)[C@H](CO)NC(=O)[C@@H]1CCCN1)C(=O)N[C@@H](Cc1ccc(OP(=O)(O)O)cc1)C(=O)N[C@H](C(=O)N1CCC[C@H]1C(=O)N[C@@H](CC(=O)O)C(=O)N[C@@H](CCC(=O)O)C(=O)N[C@@H](Cc1c[nH]c2ccccc12)C(=O)N[C@@H](CCC(=O)O)C(=O)O)C(C)C [IR-pep] (H-PSSV[pY]VPDEWE-OH)
10 | 21.9 | O=S(=O)(Nc1ccc2c(c1)nc(-c1ccccc1)n2CCCc1ccccc1)c1ccc(OC(F)(F)F)cc1 [N-(2-phenyl-1-(3-phenylpropyl)-1H-benzo[d]imidazol-5-yl)-4-(trifluoromethoxy)benzenesulfonamide (16)]
11 | 12.2 | O=C(Nc1ccc2c(c1)nc(-c1ccccc1)n2CCCc1ccccc1)c1ccc(-c2ccccc2)cc1 [N-(2-phenyl-1-(3-phenylpropyl)-1H-benzo[d]imidazol-5-yl)-[1,1'-biphenyl]-4-carboxamide (24)]

Further lines, the compound ahead of its results:

Row | Compound | IC50 [µM]
12 | O=S(=O)(Nc1ccc2c(c1)nc(-c1ccccc1)n2CCCc1ccccc1)c1ccccc1Br [2-Bromo-N-(2-phenyl-1-(3-phenylpropyl)-1H-benzo[d]imidazol-5-yl)benzenesulfonamide (19)] | 20.8
13 | O=S(=O)(Nc1ccc2nc(-c3ccccc3)oc2c1)c1ccccc1Br [2-Bromo-N-(2-phenylbenzo[d]oxazol-6-yl)benzenesulfonamide (8)] | > 40
14 | O=C(Nc1ccc2c(c1)nc(-c1ccccc1)n2CCCc1ccccc1)c1ccccc1F [2-Fluoro-N-(2-phenyl-1-(3-phenylpropyl)-1H-benzo[d]imidazol-5-yl)benzamide (21)] | 9.59
15 | O=C(Nc1ccc2nc(-c3ccccc3)oc2c1)c1ccccc1F [2-Fluoro-N-(2-phenylbenzo[d]oxazol-6-yl)benzamide (11)] | > 40
16 | COc1ccccc1C(=O)Nc1ccc2nc(-c3ccccc3)oc2c1 [2-Methoxy-N-(2-phenylbenzo[d]oxazol-6-yl)benzamide (10)] | 12.8
17 | O=C(Nc1ccc2nc(-c3ccccc3)oc2c1)c1cccc(Br)c1 [3-Bromo-N-(2-phenylbenzo[d]oxazol-6-yl)benzamide (12)] | 15.3
18 | O=[N+]([O-])c1cccc(S(=O)(=O)Nc2ccc3c(c2)nc(-c2ccccc2)n3CCCc2ccccc2)c1 [3-Nitro-N-(2-phenyl-1-(3-phenylpropyl)-1H-benzo[d]imidazol-5-yl)benzenesulfonamide (13)] | 35.4
19 | CC(C)(C)c1ccc(S(=O)(=O)Nc2ccc3nc(-c4ccccc4)oc3c2)cc1 [4-(tert-Butyl)-N-(2-phenylbenzo[d]oxazol-6-yl)benzenesulfonamide (9)] | 36.3
20 | N#Cc1ccc(S(=O)(=O)Nc2ccc3c(c2)nc(-c2ccccc2)n3CCCc2ccccc2)cc1 [4-Cyano-N-(2-phenyl-1-(3-phenylpropyl)-1H-benzo[d]imidazol-5-yl)benzenesulfonamide (18)] | 18.8
21 | N#Cc1ccc(S(=O)(=O)Nc2ccc3nc(-c4ccccc4)oc3c2)cc1 [4-Cyano-N-(2-phenylbenzo[d]oxazol-6-yl)benzenesulfonamide (7)] | 30.4
22 | O=S(=O)(Nc1ccc2c(c1)nc(-c1ccccc1)n2CCCc1ccccc1)c1ccc(C(F)(F)F)cc1 [N-(2-phenyl-1-(3-phenylpropyl)-1H-benzo[d]imidazol-5-yl)-4-(trifluoromethyl)benzenesulfonamide (15)] | 16
